Experimental findings from patent US20250122208A1, “CHEMOKINE RECEPTOR MODULATORS AND USES THEREOF” (RAPT THERAPEUTICS, INC., priority 2023, published 2025) are described below.

Structures are written as SMILES.

The target in this test is T1, CCR4 receptor (Homo sapiens, UniProt P51679).
T1 construct: beta-galactosidase enzyme-fragment tag; From own knowledge, PathHunter uses a ProLink/enzyme-donor fragment, usually at the receptor's C-terminus; expressed in transfected cells; host or cells: CHO-K1
T1 sequence (P51679 1-360): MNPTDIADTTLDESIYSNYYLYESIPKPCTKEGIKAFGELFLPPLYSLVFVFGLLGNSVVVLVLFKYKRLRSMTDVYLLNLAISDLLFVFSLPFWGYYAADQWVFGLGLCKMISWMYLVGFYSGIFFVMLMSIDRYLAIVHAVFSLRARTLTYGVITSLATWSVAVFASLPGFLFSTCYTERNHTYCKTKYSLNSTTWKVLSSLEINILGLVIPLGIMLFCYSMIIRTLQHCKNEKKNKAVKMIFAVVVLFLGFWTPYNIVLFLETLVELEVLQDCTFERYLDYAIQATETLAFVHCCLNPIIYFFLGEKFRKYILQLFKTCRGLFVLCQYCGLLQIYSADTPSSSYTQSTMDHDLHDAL
In words: CCR4 antagonist activity in Beta-Arrestin Cellular Assay (PathHunter, CCL22 challenge). The test is classed as cell-based. As to conditions: CHO-K1 cells expressing the CCR4 receptor; CCL22 at EC80 (15 nM), 90 minutes; 30 min pre-incubation; read-out: Potency (CCR4 antagonist IC50 in the β-arrestin assay). The method, then:
Example 39. Determination of CCR4 antagonist activity in Beta-Arrestin Cellular Assay
CCR4 Antagonistic Activity was assessed in Beta-Arrestin Cellular Assay. Compounds were assessed in CHO-K1 cells expressing the CCR4 receptor modified to enable β-glactosidase detection of β-arrestin agonist activity stimulated by CCL22 in a chemiluminescence assay. Cells were seeded in a total volume of 20 μL into white walled, 384-well microplates and incubated at 37° C. prior to testing. Cells were pre-incubated with test compound for 30 min at 37° C. followed by agonist challenge with CCL22 at the EC80 concentration (15 nM) for 90 minutes. Assay signal was generated through a single addition of 12.5 or 15 μL ([…]) of PathHunter Detection reagent cocktail, followed by a one-hour incubation at room temperature. Microplates were read following signal generation with a PerkinElmer Envision™ instrument for chemiluminescent signal detection. Antagonist activity was analyzed using CBIS data analysis suite (ChemInnovation, CA). Antagonist activity was characterized as percentage inhibition calculated using the following formula:
An IC50 of >500 nM is designated as Potency C, an IC50 of between 500 nM and 100 nM is designated as Potency B and an IC50 of <100 nM is designated as Potency A.
In the case of `C[C@@H](Nc1cc(N2CCC([C@H]3CCCNC3)CC2)nc2ncnn12)c1ccc(Cl)cc1Cl` [Example 1, 5-((R)-[3,4′-bipiperidin]-1′-yl)-N-((R)-1-(2,4-dichlorophenyl)ethyl)-[1,2,4]triazolo[1,5-a]pyrimidin-7-amine], the IC50 is less than 100 nM.
For `C[C@@H](Nc1cc(N2CCC([C@H]3CCCN([C@H]4C[C@](C)(C(=O)O)C4)C3)CC2)nc2ncnn12)c1ccc(Cl)cc1F` [Example 37, (1R,3r)-3-((R)-1′-(7-(((R)-1-(4-chloro-2-fluorophenyl)ethyl)amino)-[1,2,4]triazolo[1,5-a]pyrimidin-5-yl)-[3,4′-bipiperidin]-1-yl)-1-methylcyclobutane-1-carboxylic acid], the IC50 is less than 100 nM.
As for `CC(=O)NCCN1CCC[C@H](C2CCN(c3cc(N[C@H](C)c4ccc(Cl)cc4Cl)n4ncnc4n3)CC2)C1` [Example 13, N-(2-((R)-1′-(7-(((R)-1-(2,4-dichlorophenyl)ethyl)amino)-[1,2,4]triazolo[1,5-a]pyrimidin-5-yl)-[3,4′-bipiperidin]-1-yl)ethyl)acetamide], the figure is less than 100 nM; as for `C[C@@H](Nc1cc(N2CCC([C@H]3CCCN([C@H]4C[C@](C)(C(=O)O)C4)C3)CC2)nc2ccnn12)c1ccc(Cl)cc1F` [Example 38, (1R,3r)-3-((R)-1′-(7-(((R)-1-(4-chloro-2-fluorophenyl)ethyl)amino)pyrazolo[1,5-a]pyrimidin-5-yl)-[3,4′-bipiperidin]-1-yl)-1-methylcyclobutane-1-carboxylic acid], less than 100 nM; as for `CC(CCN1CCC[C@H](C2CCN(c3cc(N[C@H](C)c4ccc(Cl)cc4Cl)n4ncnc4n3)CC2)C1)C(=O)O` (mixture of isomers) [Example 16, 4-((R)-1′-(7-(((R)-1-(2,4-dichlorophenyl)ethyl)amino)-[1,2,4]triazolo[1,5-a]pyrimidin-5-yl)-[3,4′-bipiperidin]-1-yl)-2-methylbutanoic acid], less than 100 nM.
As for `Cc1ccc([C@@H](C)Nc2cc(N3CCC([C@H]4CCCN([C@H]5C[C@](C)(C(=O)O)C5)C4)CC3)nc3ccnn23)c(Cl)c1` [Example 31, (1R,3r)-3-((R)-1′-(7-(((R)-1-(2-chloro-4-methylphenyl)ethyl)amino)pyrazolo[1,5-a]pyrimidin-5-yl)-[3,4′-bipiperidin]-1-yl)-1-methylcyclobutane-1-carboxylic acid], the figure is less than 100 nM; as for `Cc1ccc([C@@H](C)Nc2cc(N3CCC([C@H]4CCCN([C@H]5C[C@](C)(C(=O)O)C5)C4)CC3)nc3ncnn23)c(Cl)c1` [Example 30, (1R,3r)-3-((R)-1′-(7-(((R)-1-(2-chloro-4-methylphenyl)ethyl)amino)-[1,2,4]triazolo[1,5-a]pyrimidin-5-yl)-[3,4′-bipiperidin]-1-yl)-1-methylcyclobutane-1-carboxylic acid], less than 100 nM; as for `C[C@@H](Nc1cc(N2CCC([C@H]3CCCN(CCO)C3)CC2)nc2ncnn12)c1ccc(Cl)cc1Cl` [Example 8, 2-((R)-1′-(7-(((R)-1-(2,4-dichlorophenyl)ethyl)amino)-[1,2,4]triazolo[1,5-a]pyrimidin-5-yl)-[3,4′-bipiperidin]-1-yl)ethan-1-ol], less than 100 nM.
As for `C[C@@H](Nc1cc(N2CCC([C@H]3CCCN(Cc4ncc[nH]4)C3)CC2)nc2ncnn12)c1ccc(Cl)cc1Cl` [Example 4, 5-((R)-1-((1H-imidazol-2-yl)methyl)-[3,4′-bipiperidin]-1′-yl)-N-((R)-1-(2,4-dichlorophenyl)ethyl)-[1,2,4]triazolo[1,5-a]pyrimidin-7-amine], the figure is less than 100 nM.
For `C[C@@H](Nc1cc(N2CCC([C@H]3CCCN(CC(F)(F)F)C3)CC2)nc2ncnn12)c1ccc(Cl)cc1Cl` [Example 7, N-((R)-1-(2,4-dichlorophenyl)ethyl)-5-((R)-1-(2,2,2-trifluoroethyl)-[3,4′-bipiperidin]-1′-yl)-[1,2,4]triazolo[1,5-a]pyrimidin-7-amine], the IC50 was more than 500 nM.
For `CC(CN1CCC[C@H](C2CCN(c3cc(N[C@H](C)c4ccc(Cl)cc4Cl)n4ncnc4n3)CC2)C1)C(=O)O` (mixture of isomers) [Example 15, 3-((R)-1′-(7-(((R)-1-(2,4-dichlorophenyl)ethyl)amino)-[1,2,4]triazolo[1,5-a]pyrimidin-5-yl)-[3,4′-bipiperidin]-1-yl)-2-methylpropanoic acid], the concentration for half-maximal inhibition (IC50) was less than 100 nM.
As for `C[C@@H](Nc1cc(N2CCC([C@H]3CCCN([C@H]4C[C@](C)(C(=O)O)C4)C3)CC2)nc2ccnn12)c1ccc(F)cc1Cl` [Example 25, (1R,3r)-3-((R)-1′-(7-(((R)-1-(2-chloro-4-fluorophenyl)ethyl)amino)pyrazolo[1,5-a]pyrimidin-5-yl)-[3,4′-bipiperidin]-1-yl)-1-methylcyclobutane-1-carboxylic acid], the IC50 was less than 100 nM.
As for `C[C@@H](Nc1cc(N2CCC([C@H]3CCCN(CCC(=O)O)C3)CC2)nc2ncnn12)c1ccc(Cl)cc1Cl` [Example 14, 3-((R)-1′-(7-(((R)-1-(2,4-dichlorophenyl)ethyl)amino)-[1,2,4]triazolo[1,5-a]pyrimidin-5-yl)-[3,4′-bipiperidin]-1-yl)propanoic acid], the figure is less than 100 nM.
On to `C[C@@H](Nc1cc(N2CCC([C@H]3CCCN([C@H]4C[C@](C)(C(=O)O)C4)C3)CC2)nc2ncnn12)c1ccc(F)cc1Cl` [Example 26, (1R,3r)-3-((R)-1′-(7-(((R)-1-(2-chloro-4-fluorophenyl)ethyl)amino)-[1,2,4]triazolo[1,5-a]pyrimidin-5-yl)-[3,4′-bipiperidin]-1-yl)-1-methylcyclobutane-1-carboxylic acid], for which the half-inhibitory concentration (IC50) was less than 100 nM.
As for `C[C@@H](Nc1cc(N2CCC([C@H]3CCCN([C@H]4C[C@](C)(C(=O)O)C4)C3)CC2)nc2nccn12)c1ccc(Cl)cc1F` [Example 27, (1R,3r)-3-((R)-1′-(5-(((R)-1-(4-chloro-2-fluorophenyl)ethyl)amino)imidazo[1,2-a]pyrimidin-7-yl)-[3,4′-bipiperidin]-1-yl)-1-methylcyclobutane-1-carboxylic acid], the figure is less than 100 nM; as for `C[C@@H](Nc1cc(N2CCC([C@H]3CCCN(CC#N)C3)CC2)nc2ncnn12)c1ccc(Cl)cc1Cl` [Example 3, 2-((R)-1′-(7-(((R)-1-(2,4-dichlorophenyl)ethyl)amino)-[1,2,4]triazolo[1,5-a]pyrimidin-5-yl)-[3,4′-bipiperidin]-1-yl)acetonitrile], less than 100 nM; as for `C[C@@H](Nc1cc(N2CCC([C@H]3CCCN(Cc4nc[nH]n4)C3)CC2)nc2ncnn12)c1ccc(Cl)cc1Cl` [Example 5, 5-((R)-1-((1H-1,2,4-triazol-3-yl)methyl)-[3,4′-bipiperidin]-1′-yl)-N-((R)-1-(2,4-dichlorophenyl)ethyl)-[1,2,4]triazolo[1,5-a]pyrimidin-7-amine], less than 100 nM.

What is called IC50 is the midpoint of a concentration-inhibition curve.
